Structures are written as SMILES.

One assay concerns the target DCLK3/DCAMKL3 (Homo sapiens, UniProt Q9C098). The experiment in a line: Eurofins kinase enzymatic radiometric assay. The class given is biochemical. Details: purchased Eurofins. The note with it: Km of ATP, 9-point curve in duplicate. The text has this: (§1) Due to our interest in the activity of GW296115 on several understudied IDG kinases, we collected full dose–response curves for all wild type kinases inhibited ≥ 75% in the DiscoverX panel that were offered by Eurofins. Having data in orthogonal formats is a powerful way to confirm inhibitory activity and adds rigor to our results. Eurofins has kinase enzymatic radiometric assays for 35 of the kinases on this list (Table S2) and a kinase enzymatic LANCE assay for one additional kinase (MAP2K5/MEK5).
(§2) Eurofins kinase enzymatic radiometric assays were carried out at the Km of ATP in dose–response (9-pt curve in duplicate) for each kinase for which it was offered.

In another assay the target is DAPK2 (Homo sapiens, UniProt Q9UIK4). The experiment in a line: Eurofins kinase enzymatic radiometric assay. Details: purchased Eurofins. It is filed as biochemical. The note with it: Km of ATP, 9-point curve in duplicate.
Description: as §1, §2

A further assay has as its target PDGFRA (Homo sapiens, UniProt P16234). In words: Eurofins kinase enzymatic radiometric assay. The class given is biochemical. Details: purchased Eurofins. As to conditions: Km of ATP, 9-point curve in duplicate.
Description: as §1, §2

The target in the next assay is DMPK (Homo sapiens, UniProt Q09013). In words: Eurofins kinase enzymatic radiometric assay. The class given is biochemical. Also on record: purchased Eurofins. The note with it: Km of ATP, 9-point curve in duplicate.
Description: as §1, §2

In a further assay the target is MINK1/MINK (Homo sapiens, UniProt Q8N4C8). In words: Eurofins kinase enzymatic radiometric assay. The class given is biochemical. Also on record: purchased Eurofins. As to conditions: Km of ATP, 9-point curve in duplicate.
Chain of MINK1/MINK (Q8N4C8 whole entry): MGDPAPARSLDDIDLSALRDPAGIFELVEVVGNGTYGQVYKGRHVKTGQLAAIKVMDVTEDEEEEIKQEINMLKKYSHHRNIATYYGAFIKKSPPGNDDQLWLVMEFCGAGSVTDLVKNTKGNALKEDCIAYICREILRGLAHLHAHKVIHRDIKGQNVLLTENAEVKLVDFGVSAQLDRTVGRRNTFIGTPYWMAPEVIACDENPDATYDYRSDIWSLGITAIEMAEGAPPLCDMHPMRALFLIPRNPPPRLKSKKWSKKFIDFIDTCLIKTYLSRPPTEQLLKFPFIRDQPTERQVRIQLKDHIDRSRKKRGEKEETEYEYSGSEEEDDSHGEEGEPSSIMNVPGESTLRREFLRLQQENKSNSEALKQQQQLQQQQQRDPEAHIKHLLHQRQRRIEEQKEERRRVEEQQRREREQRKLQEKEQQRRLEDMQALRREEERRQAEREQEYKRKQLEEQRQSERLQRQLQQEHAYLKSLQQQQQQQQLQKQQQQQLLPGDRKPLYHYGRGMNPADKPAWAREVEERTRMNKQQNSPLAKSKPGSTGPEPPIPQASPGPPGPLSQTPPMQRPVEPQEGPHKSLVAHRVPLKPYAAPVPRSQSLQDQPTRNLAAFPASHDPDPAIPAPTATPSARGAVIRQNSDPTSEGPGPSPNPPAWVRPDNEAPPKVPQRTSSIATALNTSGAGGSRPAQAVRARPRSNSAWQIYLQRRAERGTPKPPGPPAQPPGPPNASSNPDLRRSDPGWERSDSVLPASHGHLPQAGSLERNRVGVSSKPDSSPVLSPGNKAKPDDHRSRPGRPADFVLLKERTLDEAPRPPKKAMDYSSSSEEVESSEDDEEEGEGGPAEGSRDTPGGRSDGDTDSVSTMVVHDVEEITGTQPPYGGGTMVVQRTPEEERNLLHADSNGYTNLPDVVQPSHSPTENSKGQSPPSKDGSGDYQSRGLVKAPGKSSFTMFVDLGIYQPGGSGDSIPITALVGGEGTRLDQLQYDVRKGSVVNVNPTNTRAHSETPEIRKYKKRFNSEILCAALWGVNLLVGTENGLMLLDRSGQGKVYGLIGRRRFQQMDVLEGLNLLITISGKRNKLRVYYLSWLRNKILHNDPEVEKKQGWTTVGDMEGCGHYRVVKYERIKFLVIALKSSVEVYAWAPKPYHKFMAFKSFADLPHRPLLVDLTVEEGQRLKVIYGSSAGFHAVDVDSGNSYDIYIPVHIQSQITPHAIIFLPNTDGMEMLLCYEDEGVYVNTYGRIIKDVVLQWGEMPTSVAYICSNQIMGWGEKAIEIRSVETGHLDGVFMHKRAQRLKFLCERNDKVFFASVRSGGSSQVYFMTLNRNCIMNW
Description: as §1, §2

The next assay has as its target MAP3K9/MLK1 (Homo sapiens, UniProt P80192). In words: Eurofins kinase enzymatic radiometric assay. The class given is biochemical. Details: purchased Eurofins. The note with it: Km of ATP, 9-point curve in duplicate.
Description: as §1, §2

A further assay addresses DAPK1 (Homo sapiens, UniProt P53355). In words: Eurofins kinase enzymatic radiometric assay. As to conditions: Km of ATP, 9-point curve in duplicate. Also on record: purchased Eurofins. It is filed as biochemical.
Description: as §1, §2

The next assay concerns the target NUAK1/ARK5 (Homo sapiens, UniProt O60285). The experiment in a line: Eurofins kinase enzymatic radiometric assay. As to conditions: Km of ATP, 9-point curve in duplicate. Also on record: purchased Eurofins. The class given is biochemical.
Description: as §1, §2

For another assay, the target named is T1, BRSK2 (Homo sapiens, UniProt Q8IWQ3).
T1 sequence (Q8IWQ3 1-736): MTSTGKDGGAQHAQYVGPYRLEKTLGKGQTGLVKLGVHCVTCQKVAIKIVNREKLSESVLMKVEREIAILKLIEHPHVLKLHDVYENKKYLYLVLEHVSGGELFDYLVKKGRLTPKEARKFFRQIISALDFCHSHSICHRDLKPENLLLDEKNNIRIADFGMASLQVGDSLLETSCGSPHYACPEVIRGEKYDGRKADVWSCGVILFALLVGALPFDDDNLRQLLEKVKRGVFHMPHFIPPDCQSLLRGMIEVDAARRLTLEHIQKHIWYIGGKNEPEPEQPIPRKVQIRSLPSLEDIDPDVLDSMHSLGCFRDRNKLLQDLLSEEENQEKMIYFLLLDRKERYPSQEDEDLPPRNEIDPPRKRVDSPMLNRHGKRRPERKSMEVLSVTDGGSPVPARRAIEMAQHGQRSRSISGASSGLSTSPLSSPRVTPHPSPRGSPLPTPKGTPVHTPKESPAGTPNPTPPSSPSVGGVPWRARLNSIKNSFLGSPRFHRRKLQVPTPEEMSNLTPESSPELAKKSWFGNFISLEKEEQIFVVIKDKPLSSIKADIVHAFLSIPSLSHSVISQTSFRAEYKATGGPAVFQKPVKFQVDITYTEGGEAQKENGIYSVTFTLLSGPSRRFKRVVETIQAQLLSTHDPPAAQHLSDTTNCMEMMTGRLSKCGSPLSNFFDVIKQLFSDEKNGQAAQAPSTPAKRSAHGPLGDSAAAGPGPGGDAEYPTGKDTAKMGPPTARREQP
The experiment in a line: Eurofins kinase enzymatic radiometric assay. It is filed as biochemical. Details: purchased Eurofins. As to conditions: Km of ATP, 9-point curve in duplicate.
Description: as §1, §2

The target of another assay is ROS1 (Homo sapiens, UniProt P08922). In words: Eurofins kinase enzymatic radiometric assay. The class given is biochemical. Also on record: purchased Eurofins. The note with it: Km of ATP, 9-point curve in duplicate.
Chain of ROS1 (P08922 28-2347): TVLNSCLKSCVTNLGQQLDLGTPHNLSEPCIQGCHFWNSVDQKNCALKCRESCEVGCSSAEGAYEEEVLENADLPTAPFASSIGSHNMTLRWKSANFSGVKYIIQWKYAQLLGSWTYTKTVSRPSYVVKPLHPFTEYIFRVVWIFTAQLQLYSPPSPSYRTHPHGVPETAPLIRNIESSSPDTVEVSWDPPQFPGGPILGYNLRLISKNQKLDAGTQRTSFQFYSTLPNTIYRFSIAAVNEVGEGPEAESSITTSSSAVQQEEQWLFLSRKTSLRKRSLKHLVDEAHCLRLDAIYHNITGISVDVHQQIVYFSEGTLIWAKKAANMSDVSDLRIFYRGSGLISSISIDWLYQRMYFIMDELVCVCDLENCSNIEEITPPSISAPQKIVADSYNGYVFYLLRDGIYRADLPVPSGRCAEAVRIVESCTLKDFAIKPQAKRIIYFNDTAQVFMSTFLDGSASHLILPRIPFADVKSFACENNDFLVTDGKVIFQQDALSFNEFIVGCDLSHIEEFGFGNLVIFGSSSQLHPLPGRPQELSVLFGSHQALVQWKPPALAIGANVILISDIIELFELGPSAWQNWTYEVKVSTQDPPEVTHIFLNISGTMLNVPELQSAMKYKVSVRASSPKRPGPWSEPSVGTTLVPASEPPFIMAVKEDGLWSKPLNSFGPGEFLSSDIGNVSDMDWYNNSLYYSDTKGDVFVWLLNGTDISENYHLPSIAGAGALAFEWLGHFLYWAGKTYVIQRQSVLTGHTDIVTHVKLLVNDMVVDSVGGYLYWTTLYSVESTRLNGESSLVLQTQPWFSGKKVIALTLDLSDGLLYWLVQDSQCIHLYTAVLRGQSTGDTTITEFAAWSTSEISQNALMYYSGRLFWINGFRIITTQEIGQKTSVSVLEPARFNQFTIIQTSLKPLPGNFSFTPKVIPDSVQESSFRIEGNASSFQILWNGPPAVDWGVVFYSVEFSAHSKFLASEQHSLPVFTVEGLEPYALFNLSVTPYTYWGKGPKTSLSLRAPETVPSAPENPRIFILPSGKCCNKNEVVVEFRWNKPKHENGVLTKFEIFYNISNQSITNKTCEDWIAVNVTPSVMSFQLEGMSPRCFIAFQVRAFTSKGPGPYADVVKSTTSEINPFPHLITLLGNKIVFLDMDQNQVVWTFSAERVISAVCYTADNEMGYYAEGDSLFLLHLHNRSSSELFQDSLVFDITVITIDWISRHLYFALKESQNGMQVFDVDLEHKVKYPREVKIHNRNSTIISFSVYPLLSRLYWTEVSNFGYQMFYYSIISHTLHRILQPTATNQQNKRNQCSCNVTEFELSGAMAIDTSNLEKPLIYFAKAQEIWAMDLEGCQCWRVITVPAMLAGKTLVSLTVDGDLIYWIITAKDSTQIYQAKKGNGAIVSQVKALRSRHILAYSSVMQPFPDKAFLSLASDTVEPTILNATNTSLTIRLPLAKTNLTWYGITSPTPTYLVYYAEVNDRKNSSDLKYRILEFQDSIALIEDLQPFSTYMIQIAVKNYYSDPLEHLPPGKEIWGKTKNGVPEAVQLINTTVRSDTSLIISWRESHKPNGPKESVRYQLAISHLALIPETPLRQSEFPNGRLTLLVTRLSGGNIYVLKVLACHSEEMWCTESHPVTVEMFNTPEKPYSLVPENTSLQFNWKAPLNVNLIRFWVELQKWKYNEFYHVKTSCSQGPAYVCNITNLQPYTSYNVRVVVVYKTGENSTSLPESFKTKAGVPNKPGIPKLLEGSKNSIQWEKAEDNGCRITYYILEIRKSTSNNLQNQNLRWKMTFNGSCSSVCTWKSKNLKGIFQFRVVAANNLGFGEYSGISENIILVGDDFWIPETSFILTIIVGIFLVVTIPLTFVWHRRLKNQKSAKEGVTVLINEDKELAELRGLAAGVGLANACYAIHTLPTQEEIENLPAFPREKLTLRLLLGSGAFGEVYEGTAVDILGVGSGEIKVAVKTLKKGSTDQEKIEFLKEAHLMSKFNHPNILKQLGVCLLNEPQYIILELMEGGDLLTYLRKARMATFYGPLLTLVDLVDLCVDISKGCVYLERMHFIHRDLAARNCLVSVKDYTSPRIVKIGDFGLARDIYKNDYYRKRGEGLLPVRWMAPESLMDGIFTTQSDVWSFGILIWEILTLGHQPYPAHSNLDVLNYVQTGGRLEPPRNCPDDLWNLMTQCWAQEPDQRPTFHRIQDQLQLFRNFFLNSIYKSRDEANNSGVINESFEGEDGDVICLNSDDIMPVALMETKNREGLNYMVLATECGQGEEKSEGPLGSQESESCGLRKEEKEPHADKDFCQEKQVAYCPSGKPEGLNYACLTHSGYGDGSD
Description: as §1, §2

In the next assay the target is MAP3K11/MLK3 (Homo sapiens, UniProt Q16584). In words: Eurofins kinase enzymatic radiometric assay. The class given is biochemical. Details: purchased Eurofins. As to conditions: Km of ATP, 9-point curve in duplicate.
Description: as §1, §2

Another assay concerns the target SGK3 (Homo sapiens, UniProt Q96BR1). In words: Eurofins kinase enzymatic radiometric assay. It is filed as biochemical. Also on record: purchased Eurofins. The note with it: Km of ATP, 9-point curve in duplicate.
Description: as §1, §2

The target in another assay is PHKG1 (Homo sapiens, UniProt Q16816). The experiment in a line: Eurofins kinase enzymatic radiometric assay. It is filed as biochemical. Also on record: purchased Eurofins. The note with it: Km of ATP, 9-point curve in duplicate.
Description: as §1, §2

Another assay addresses LRRK2 (Homo sapiens, UniProt Q5S007). The experiment in a line: Eurofins kinase enzymatic radiometric assay. The class given is biochemical. Also on record: purchased Eurofins. The note with it: Km of ATP, 9-point curve in duplicate.
Description: as §1, §2

Another assay has as its target AXL (Homo sapiens, UniProt P30530). In words: Eurofins kinase enzymatic radiometric assay. The class given is biochemical. Also on record: purchased Eurofins. As to conditions: Km of ATP, 9-point curve in duplicate.
Description: as §1, §2

A further assay has as its target RPS6KA6/RSK4 (Homo sapiens, UniProt Q9UK32). In words: Eurofins kinase enzymatic radiometric assay. The class given is biochemical. Details: purchased Eurofins. The note with it: Km of ATP, 9-point curve in duplicate.
Description: as §1, §2

The target of a further assay is PRKG2/PKG2 (Homo sapiens, UniProt Q13237). In words: Eurofins kinase enzymatic radiometric assay. The class given is biochemical. Details: purchased Eurofins. As to conditions: Km of ATP, 9-point curve in duplicate.
Chain of PRKG2/PKG2 (Q13237 whole entry): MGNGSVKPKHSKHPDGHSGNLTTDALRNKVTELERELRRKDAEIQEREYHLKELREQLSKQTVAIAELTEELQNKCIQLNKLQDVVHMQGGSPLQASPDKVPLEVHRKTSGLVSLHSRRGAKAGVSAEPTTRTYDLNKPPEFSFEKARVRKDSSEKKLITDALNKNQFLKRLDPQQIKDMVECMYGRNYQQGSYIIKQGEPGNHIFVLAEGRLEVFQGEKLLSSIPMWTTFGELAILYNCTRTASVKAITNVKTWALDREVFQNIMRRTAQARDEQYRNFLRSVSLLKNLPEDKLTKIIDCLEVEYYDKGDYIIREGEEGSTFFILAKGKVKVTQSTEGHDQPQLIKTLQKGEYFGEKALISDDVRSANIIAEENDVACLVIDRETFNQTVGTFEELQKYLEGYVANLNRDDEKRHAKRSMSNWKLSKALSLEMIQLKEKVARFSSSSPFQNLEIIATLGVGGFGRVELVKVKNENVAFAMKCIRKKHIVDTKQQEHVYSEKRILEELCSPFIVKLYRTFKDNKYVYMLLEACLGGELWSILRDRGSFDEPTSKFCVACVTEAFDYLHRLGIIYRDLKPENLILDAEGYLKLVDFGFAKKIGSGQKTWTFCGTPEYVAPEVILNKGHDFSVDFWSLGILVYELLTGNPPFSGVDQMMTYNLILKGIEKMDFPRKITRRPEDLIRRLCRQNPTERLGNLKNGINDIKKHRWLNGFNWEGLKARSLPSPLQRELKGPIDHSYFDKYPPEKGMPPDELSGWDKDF
Description: as §1, §2

The target of a further assay is SGK1/SGK (Homo sapiens, UniProt O00141). In words: Eurofins kinase enzymatic radiometric assay. It is filed as biochemical. Details: purchased Eurofins. The note with it: Km of ATP, 9-point curve in duplicate.
Chain of SGK1/SGK (O00141 whole entry): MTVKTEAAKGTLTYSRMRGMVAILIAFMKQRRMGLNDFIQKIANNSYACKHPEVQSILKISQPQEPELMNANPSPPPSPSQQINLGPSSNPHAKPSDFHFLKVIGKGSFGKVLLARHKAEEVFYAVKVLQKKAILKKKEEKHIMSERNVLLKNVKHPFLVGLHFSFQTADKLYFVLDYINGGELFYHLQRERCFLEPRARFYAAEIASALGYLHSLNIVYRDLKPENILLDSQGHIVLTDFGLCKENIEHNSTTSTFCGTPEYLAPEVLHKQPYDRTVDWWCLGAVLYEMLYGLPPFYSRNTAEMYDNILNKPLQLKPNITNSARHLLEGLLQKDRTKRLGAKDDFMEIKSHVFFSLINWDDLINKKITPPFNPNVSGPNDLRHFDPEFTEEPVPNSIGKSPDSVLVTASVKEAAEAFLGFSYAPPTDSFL
Description: as §1, §2

For another assay, the target named is T2, STK17B/DRAK2 (Homo sapiens, UniProt O94768).
T2 sequence (O94768 1-372): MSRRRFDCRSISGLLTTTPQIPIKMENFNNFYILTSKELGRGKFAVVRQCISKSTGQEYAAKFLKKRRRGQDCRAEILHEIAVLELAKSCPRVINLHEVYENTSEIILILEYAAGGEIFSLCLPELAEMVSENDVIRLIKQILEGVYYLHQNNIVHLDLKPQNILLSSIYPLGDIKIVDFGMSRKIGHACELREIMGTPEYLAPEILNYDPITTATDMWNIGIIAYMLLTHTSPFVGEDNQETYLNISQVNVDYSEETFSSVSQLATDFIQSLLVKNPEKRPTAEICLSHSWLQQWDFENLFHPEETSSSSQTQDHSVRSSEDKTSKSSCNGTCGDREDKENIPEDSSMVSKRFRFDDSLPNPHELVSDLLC
Also on record: purchased Eurofins; method as in earlier work. The note with it: cited from earlier work.

The target in another assay is T3, CHEK1 (Homo sapiens, UniProt O14757).
T3 construct: purchased Eurofins DiscoverX Corporation
The experiment in a line: DiscoverX scanMAX competition binding assay. As to conditions: read-out: % inhibition at 1 μM.

Turning to `COc1ccc2[nH]c3c4[nH]c5ccc(OC)cc5c4c4c(c3c2c1)C(=O)NC4=O` [GW296115], the IC50 is 89 nM against DCLK3/DCAMKL3; 21 nM against DAPK2; 710 nM at PDGFRA; greater than 10000 nM against DMPK; 35 nM against MINK1/MINK; 26 nM against MAP3K9/MLK1. Besides, the IC50 is greater than 10000 nM on DAPK1; 15 nM at NUAK1/ARK5; 8.4 nM on BRSK2; greater than 10000 nM on ROS1; 1.5 nM against MAP3K11/MLK3; greater than 10000 nM at SGK3. Further, the IC50 is 20 nM on PHKG1; 25 nM against LRRK2; 160 nM against AXL; 12 nM at RPS6KA6/RSK4; 6.3 nM against PRKG2/PKG2; 710 nM at SGK1/SGK. Besides, the “TSA ΔTm at 10 μM (°C)” value on STK17B/DRAK2 was 18.3 °C. For the same molecule, at CHEK1, the inhibition at 1 µM is 70%.

(Values after PMC7522982, “PKIS deep dive yields a chemical starting point for dark kinases and a cell active BRSK2 inhibitor” (Scientific Reports, 2020).)
